Each structure is given as a SMILES string. Where two headings read alike, the source gives them in different places.

Test [1] concerns H929 human cancer cell lines. Kind of test: Cellular viability / proliferation (Cell TiterGlo, 72 h). The test is classed as cell-based. An outline of the steps:
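Cells were seeded at 1,000 cells/well in medium with 10% FBS and dosed 24 h later with a 2-fold serial dilution of compound (top concentration 50 μM, final DMSO <1%).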
In general terms: ATP-based viability assays read luminescence as a measure of living cells.

Another test deals with Mcl-1 (Homo sapiens (Human), UniProt Q07820). The test is described as follows: TR-FRET binding assay, FITC-Bak peptide and MBP-tagged Mcl-1. Particulars: read-out: Ki for Inhibition of Mcl-1 by TR-FRET assay. On the procedure:
Compounds are diluted in DMSO in a 16-point, semilog serial dilution scheme. […] The plate was mixed and incubated for 3 hours at room temperature. […] TR-FRET signal is plotted and IC50 and Ki values are calculated in the same manner as the fluorescence polarization anisotropy based competition assays.

The mark [2] stands for this setting: Homo sapiens, NCI-H929, 72 h, read-out: GI50 on cellular proliferation of H929 human cancer cell lines, H929 cells, 72 h, Cell TiterGlo, 10% FBS.

Mcl-1, sequence (Q07820 172-327): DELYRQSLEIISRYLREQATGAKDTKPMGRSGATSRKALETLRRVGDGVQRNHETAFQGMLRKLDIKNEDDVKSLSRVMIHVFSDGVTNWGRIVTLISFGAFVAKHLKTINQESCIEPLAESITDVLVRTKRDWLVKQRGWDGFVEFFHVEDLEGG

A word on the Ki: it is a dissociation constant, usually derived from enzyme kinetics or from competition with a known ligand. In the case of `Cc1cc(OCCCc2c3n(c4c(-c5c(C)nn(C)c5C)c(Cl)ccc24)[C@H](C)CN(c2cn(CCN4CCN(C)CC4)c4ccc(-c5ncn(C)n5)cc24)C3=O)cc(C)c1Cl` [Example 526, (R)-7-Chloro-10-(3-(4-chloro-3,5-dimethylphenoxy)propyl)-4-methyl-2-(5-(1-methyl-1H-1,2,4-triazol-3-yl)-1-(2-(4-methylpiperazin-1-yl)ethyl)-1H-indol-3-yl)-6-(1,3,5-trimethyl-1H-pyrazol-4-yl)-3,4-dihydropyrazino[1,2-a]indol-1(2H)-one], the GI50 in test [1] (setting [2]) was under 200 nM. For the same compound, the Ki at Mcl-1 is under 0.2 nM.
The corresponding values for `Cc1cc(OCCCc2c3n(c4c(-c5c(C)nn(C)c5C)c(Cl)ccc24)[C@H](C)CN(c2cn(CC(=O)N4CCCC4)c4ccc(-c5ncn(C)n5)cc24)C3=O)cc(C)c1Cl` [Example 527, (R)-7-Chloro-10-(3-(4-chloro-3,5-dimethylphenoxy)propyl)-4-methyl-2-(5-(1-methyl-1H-1,2,4-triazol-3-yl)-1-(2-oxo-2-(pyrrolidin-1-yl)ethyl)-1H-indol-3-yl)-6-(1,3,5-trimethyl-1H-pyrazol-4-yl)-3,4-dihydropyrazino[1,2-a]indol-1(2H)-one] are 260 nM and 0.36 nM.
The corresponding values for `CC(=O)N1CCN(c2cccc(Cn3c(C(=O)O)cc4cc(C)cc(N5C[C@@H](C)n6c(c(CCCOc7cc(C)c(Cl)c(C)c7)c7ccc(Cl)c(-c8c(C)nn(C)c8C)c76)C5=O)c43)n2)CC1` [Example 528, (R)-1-((6-(4-acetylpiperazin-1-yl)pyridin-2-yl)methyl)-7-(7-chloro-10-(3-(4-chloro-3,5-dimethylphenoxy)propyl)-4-methyl-1-oxo-6-(1,3,5-trimethyl-1H-pyrazol-4-yl)-3,4-dihydropyrazino[1,2-a]indol-2(1H)-yl)-5-methyl-1H-indole-2-carboxylic acid] are 870 nM and under 0.2 nM.
The like results for `Cc1cc(OCCCc2c3n(c4c(-c5c(C)nn(C)c5C)c(Cl)ccc24)[C@H](C)CN(c2cn(CCCl)c4ccc(-c5ncn(C)n5)cc24)C3=O)cc(C)c1Cl` [Example 529, (R)-7-Chloro-10-(3-(4-chloro-3,5-dimethylphenoxy)propyl)-2-(1-(2-chloroethyl)-5-(1-methyl-1H-1,2,4-triazol-3-yl)-1H-indol-3-yl)-4-methyl-6-(1,3,5-trimethyl-1H-pyrazol-4-yl)-3,4-dihydropyrazino[1,2-a]indol-1(2H)-one] were, in that order, 520 nM and under 0.2 nM.
As to `COCCn1cnc(-c2ccc3c(c2)c(N2C[C@@H](C)n4c(c(CCCOc5cc(C)c(Cl)c(C)c5)c5ccc(Cl)c(-c6c(C)nn(C)c6C)c54)C2=O)cn3C)n1` [Example 530, (R)-7-Chloro-10-(3-(4-chloro-3,5-dimethylphenoxy)propyl)-2-(S-(1-(2-methoxyethyl)-1H-1,2,4-triazol-3-yl)-1-methyl-1H-indol-3-yl)-4-methyl-6-(1,3,5-trimethyl-1H-pyrazol-4-yl)-3,4-dihydropyrazino[1,2-a]indol-1(2H)-one], in test [1] (H929 cells, 72 h, Cell TiterGlo, 10% FBS, read-out: GI50 on cellular proliferation of H929 human cancer cell lines), the GI50 amounted to 230 nM. Also, the inhibition constant (Ki) on Mcl-1 was under 0.2 nM.
Take `Cc1cc(OCCCc2c3n(c4c(-c5c(C)nn(C)c5C)c(Cl)ccc24)[C@H](C)CN(c2cn(CC(=O)N4CCOCC4)c4ccc(-c5ncccn5)cc24)C3=O)cc(C)c1Cl` [Example 531, (R)-7-Chloro-10-(3-(4-chloro-3,5-dimethylphenoxy)propyl)-4-methyl-2-(1-(2-morpholino-2-oxoethyl)-5-(pyrimidin-2-yl)-1H-indol-3-yl)-6-(1,3,5-trimethyl-1H-pyrazol-4-yl)-3,4-dihydropyrazino[1,2-a]indol-1(2H)-one]: in test [1] (setting [2]), the GI50 is 380 nM. For the same compound, the Ki at Mcl-1 worked out at 0.48 nM.
The like results for `Cc1cc(OCCCc2c3n(c4c(-c5c(C)nn(C)c5C)c(Cl)ccc24)[C@H](C)CN(c2cn(Cc4cscn4)c4ccc(C(=O)O)cc24)C3=O)cc(C)c1Cl` [Example 532, (R)-3-(7-Chloro-10-(3-(4-chloro-3,5-dimethylphenoxy)propyl)-4-methyl-1-oxo-6-(1,3,5-trimethyl-1H-pyrazol-4-yl)-3,4-dihydropyrazino[1,2-a]indol-2(1H)-yl)-1-(thiazol-4-ylmethyl)-1H-indole-5-carboxylic acid] were, in that order, 390 nM and 0.2 nM.
The like results for `Cc1cc(OCCCc2c3n(c4c(-c5c(C)nn(C)c5C)c(Cl)ccc24)[C@H](C)CN(c2cc(NC(=O)CN4CCCCC4)cc4c(C(=O)O)cn(C)c24)C3=O)cc(C)c1Cl` [Example 533, (R)-7-(7-Chloro-10-(3-(4-chloro-3,5-dimethylphenoxy)propyl)-4-methyl-1-oxo-6-(1,3,5-trimethyl-1H-pyrazol-4-yl)-3,4-dihydropyrazino[1,2-a]indol-2(1H)-yl)-1-methyl-5-(2-(piperidin-1-yl)acetamido)-1H-indole-3-carboxylic acid] were, in that order, 1300 nM and 0.69 nM.
In the case of `Cc1cc(OCCCc2c3n(c4c(-c5c(C)nn(C)c5C)c(Cl)ccc24)[C@H](C)CN(c2cn(CC4CCN(C)C4)c4ccc(C(=O)O)cc24)C3=O)cc(C)c1Cl` (stereo partly drawn) [Example 534, 3-((R)-7-Chloro-10-(3-(4-chloro-3,5-dimethylphenoxy)propyl)-4-methyl-1-oxo-6-(1,3,5-trimethyl-1H-pyrazol-4-yl)-3,4-dihydropyrazino[1,2-a]indol-2(1H)-yl)-1-((1-methylpyrrolidin-3-yl)methyl)-1H-indole-5-carboxylic acid], in test [1] (setting [2]), the GI50 came to 520 nM. At Mcl-1, the Ki was under 0.2 nM.
The corresponding values for `COc1cc(N2C[C@@H](C)n3c(c(CCCOc4cc(C)c(Cl)c(C)c4)c4ccc(Cl)c(-c5c(C)ncnc5C)c43)C2=O)c2c(c1)cc(C(=O)O)n2C` [Example 535, (R)-7-(7-Chloro-10-(3-(4-chloro-3,5-dimethylphenoxy)propyl)-6-(4,6-dimethylpyrimidin-5-yl)-4-methyl-1-oxo-3,4-dihydropyrazino[1,2-a]indol-2(1H)-yl)-5-methoxy-1-methyl-1H-indole-2-carboxylic acid] are 280 nM and under 0.2 nM.
The like results for `COc1cc(N2C[C@@H](C)n3c(c(CCCOc4cc(C)c(Cl)c(C)c4)c4ccc(Cl)c(-c5c(C)nn(C)c5C)c43)C2=O)c2c(c1)cc(C(=O)O)n2Cc1cccc(C)n1` [Example 536, (R)-7-(7-Chloro-10-(3-(4-chloro-3,5-dimethylphenoxy)propyl)-4-methyl-1-oxo-6-(1,3,5-trimethyl-1H-pyrazol-4-yl)-3,4-dihydropyrazino[1,2-a]indol-2(1H)-yl)-5-methoxy-1-((6-methylpyridin-2-yl)methyl)-1H-indole-2-carboxylic acid] were, in that order, under 200 nM and under 0.2 nM.
The like results for `COCCOc1cc(N2C[C@@H](C)n3c(c(CCCOc4cc(C)c(Cl)c(C)c4)c4ccc(Cl)c(-c5c(C)nn(C)c5C)c43)C2=O)c2c(c1)cc(C(=O)O)n2Cc1ccccn1` [Example 537, (R)-7-(7-Chloro-10-(3-(4-chloro-3,5-dimethylphenoxy)propyl)-4-methyl-1-oxo-6-(1,3,5-trimethyl-1H-pyrazol-4-yl)-3,4-dihydropyrazino[1,2-a]indol-2(1H)-yl)-5-(2-methoxyethoxy)-1-(pyridin-2-ylmethyl)-1H-indole-2-carboxylic acid] were, in that order, under 200 nM and under 0.2 nM.
For `COc1cc(N2C[C@@H](C)n3c(c(CCCOc4cc(C)c(Cl)c(C)c4)c4ccc(Cl)c(-c5c(C)nn(C)c5C)c43)C2=O)c2c(c1)cc(C(=O)O)n2Cc1ccccn1` [Example 538, (R)-7-(7-Chloro-10-(3-(4-chloro-3,5-dimethylphenoxy)propyl)-4-methyl-1-oxo-6-(1,3,5-trimethyl-1H-pyrazol-4-yl)-3,4-dihydropyrazino[1,2-a]indol-2(1H)-yl)-5-methoxy-1-(pyridin-2-ylmethyl)-1H-indole-2-carboxylic acid], in test [1] (setting [2]), the GI50 is under 200 nM. The Ki on Mcl-1 was under 0.2 nM.
The like results for `COCCOc1cc(N2C[C@@H](C)n3c(c(CCCOc4cc(C)c(Cl)c(C)c4)c4ccc(Cl)c(-c5c(C)ncnc5C)c43)C2=O)c2c(c1)cc(C(=O)O)n2C` [Example 539, (R)-7-(7-Chloro-10-(3-(4-chloro-3,5-dimethylphenoxy)propyl)-6-(4,6-dimethylpyrimidin-5-yl)-4-methyl-1-oxo-3,4-dihydropyrazino[1,2-a]indol-2(1H)-yl)-5-(2-methoxyethoxy)-1-methyl-1H-indole-2-carboxylic acid] were, in that order, under 200 nM and under 0.2 nM.
On to `COCCOc1cc(N2C[C@@H](C)n3c(c(CCCOc4cc(C)c(Cl)c(C)c4)c4ccc(Cl)c(-c5c(C)nn(C)c5C)c43)C2=O)c2c(c1)cc(C(=O)O)n2Cc1cccc(C)n1` [Example 540, (R)-7-(7-Chloro-10-(3-(4-chloro-3,5-dimethylphenoxy)propyl)-4-methyl-1-oxo-6-(1,3,5-trimethyl-1H-pyrazol-4-yl)-3,4-dihydropyrazino[1,2-a]indol-2(1H)-yl)-5-(2-methoxyethoxy)-1-((6-methylpyridin-2-yl)methyl)-1H-indole-2-carboxylic acid], for which the GI50 in test [1] (setting [2]) is under 200 nM. The Ki at Mcl-1 was under 0.2 nM.
On to `Cc1cc(OCCCc2c3n(c4c(-c5c(C)nn(C)c5C)c(Cl)ccc24)[C@H](C)CN(c2cc(NC(=O)CCN(C)C)cc4c(C(=O)O)cn(C)c24)C3=O)cc(C)c1Cl` [Example 541, (R)-7-(7-Chloro-10-(3-(4-chloro-3,5-dimethylphenoxy)propyl)-4-methyl-1-oxo-6-(1,3,5-trimethyl-1H-pyrazol-4-yl)-3,4-dihydropyrazino[1,2-a]indol-2(1H)-yl)-5-(3-(dimethylamino)propanamido)-1-methyl-1H-indole-3-carboxylic acid], for which the GI50 in test [1] (setting [2]) came out at 1700 nM. Also, the Ki at Mcl-1 was determined as 0.53 nM.

These data come from US11596639B2, “Substituted indole Mcl-1 inhibitors” (Vanderbilt University, priority 2016, dated 2023).
